Data from patent publication US8404738B2 (Hoffmann-La Roche Inc., priority 2011, dated 2013).

Columns and labels:
[1] = test system: p21 promoter-luciferase construct; assay: p21 reporter gene induction (HeLa cells, p21 promoter-luciferase construct); conditions: for p21 RP3: relative gene level of p21 compared to MS275 at 3 μM; for p21 RP10: relative level of p21 compared to MS275 at 10 μM; for p21 RP30: relative level of p21 compared to MS275 at 30 μM;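 on all read-outs here: transfected HeLa cells exposed to compound for 15 h, luciferase luminescence read from lysates, p21 promoter lacks p53 site, proxy for cellular HDAC1/2/3 inhibition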
HDAC6 = molecular target: T1, HDAC6 (Homo sapiens, UniProt Q9UBN7); assay: Tubulin acetylation cytoblot assay (A549 cells); format: cell-based; conditions: 17-18 h incubation, tubulin acetylation as marker of HDAC6 inhibition, read-out: Tub-Ac EC50
T1 construct: endogenous in cells; host or cells: A549 cells
T1 sequence (Q9UBN7 1-1215): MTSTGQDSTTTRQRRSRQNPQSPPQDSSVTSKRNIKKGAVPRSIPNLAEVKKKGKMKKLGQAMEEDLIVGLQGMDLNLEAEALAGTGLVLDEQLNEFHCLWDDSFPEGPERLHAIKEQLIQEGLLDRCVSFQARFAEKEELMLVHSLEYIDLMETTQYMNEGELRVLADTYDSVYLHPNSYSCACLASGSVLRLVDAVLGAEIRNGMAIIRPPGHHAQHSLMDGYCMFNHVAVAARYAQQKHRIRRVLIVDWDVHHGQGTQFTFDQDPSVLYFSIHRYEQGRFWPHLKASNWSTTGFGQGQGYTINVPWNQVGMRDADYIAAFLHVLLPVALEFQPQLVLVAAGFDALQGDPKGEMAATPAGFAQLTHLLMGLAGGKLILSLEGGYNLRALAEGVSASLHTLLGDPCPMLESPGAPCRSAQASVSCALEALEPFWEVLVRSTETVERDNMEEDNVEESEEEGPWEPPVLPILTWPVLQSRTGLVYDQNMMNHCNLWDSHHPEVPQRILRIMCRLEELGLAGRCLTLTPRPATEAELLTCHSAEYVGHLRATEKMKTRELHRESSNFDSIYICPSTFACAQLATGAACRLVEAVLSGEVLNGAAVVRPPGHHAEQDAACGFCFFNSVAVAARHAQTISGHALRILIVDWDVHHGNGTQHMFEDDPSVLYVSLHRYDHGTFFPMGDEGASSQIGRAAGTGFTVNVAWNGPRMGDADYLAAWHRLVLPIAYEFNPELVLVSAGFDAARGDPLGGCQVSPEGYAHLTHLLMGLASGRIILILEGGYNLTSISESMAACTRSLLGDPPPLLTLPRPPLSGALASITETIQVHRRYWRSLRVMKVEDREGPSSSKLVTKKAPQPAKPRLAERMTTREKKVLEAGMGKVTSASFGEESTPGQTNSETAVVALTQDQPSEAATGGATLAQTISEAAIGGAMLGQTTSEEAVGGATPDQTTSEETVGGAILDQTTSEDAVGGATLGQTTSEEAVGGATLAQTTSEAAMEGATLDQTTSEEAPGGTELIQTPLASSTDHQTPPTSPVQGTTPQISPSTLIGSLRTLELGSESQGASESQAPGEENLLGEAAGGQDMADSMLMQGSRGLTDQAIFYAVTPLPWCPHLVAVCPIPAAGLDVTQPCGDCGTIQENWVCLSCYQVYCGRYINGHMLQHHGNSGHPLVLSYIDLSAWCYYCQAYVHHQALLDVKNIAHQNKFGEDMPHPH
Method: Tubulin Acetylation Induction by Novel Compounds: Tubulin Acetylation Cytoblot Assay.
Tubulin acetylation is a PD marker for HDAC6 inhibition. The extent of tubulin acetylation represents the inhibitory effect on HDAC6.
Novel compounds were tested for their ability to inhibit HDAC6 using a cell-based deacetylation assay. Tubulin acetylation was detected by the anti-acetylated tubulin antibody (Sigma) and horse radish peroxidase (HRP) conjugated secondary antibody (KangChen Bio. Tech.). […] 20 μl of diluted compound solution was transferred to the cell culture plate and incubated for 17-18 h. After medium removal and fixation by formaldehyde (3.7% paraformaldehyde in TBS), the cells in the plates were treated with 180 μl of −20° C. MeOH and incubated for 5 min at rt. The cell lysis was incubated with 75 μl of primary anti-acetylated tubulin antibody and secondary HRP conjugated antibody solution (1:750 anti-acetylated tubulin, 1:750 HRP conjugated anti-mouse IgG in antibody dilution buffer not containing sodium azide) for 4 h at 4° C. By adding the HRP substrate, enhanced chemiluminescence (ECL) reagent (GE Healthcare) generated luminescence corresponding to the level of tubulin acetylation. So that 75 μl of ECL was added into the wells and the luminescence from each well was immediately quantified by the plate reader. Based on the luminescence reading, the Tub-Ac EC50s against HDAC6 of the tested compounds were calculated by plotting the curve with XLfit4.0 software. Inhibition %=[signal(sample)−Mean(bottom)]×100/[Mean(top)−Mean(bottom)]

recombinant human HDAC8 = molecular target: T2, recombinant human HDAC8 (Homo sapiens, UniProt Q9BY41); assay: HDAC8 inhibition: recombinant HDAC8 fluorometric assay; format: biochemical; conditions: recombinant human HDAC8, substrate Ac-Arg-His-Lys-Lys(ε-acetyl)-AMC; read-out: HDAC8 IC50
T2 construct: made in house; host or cells: insect cells
T2 sequence (Q9BY41 1-377): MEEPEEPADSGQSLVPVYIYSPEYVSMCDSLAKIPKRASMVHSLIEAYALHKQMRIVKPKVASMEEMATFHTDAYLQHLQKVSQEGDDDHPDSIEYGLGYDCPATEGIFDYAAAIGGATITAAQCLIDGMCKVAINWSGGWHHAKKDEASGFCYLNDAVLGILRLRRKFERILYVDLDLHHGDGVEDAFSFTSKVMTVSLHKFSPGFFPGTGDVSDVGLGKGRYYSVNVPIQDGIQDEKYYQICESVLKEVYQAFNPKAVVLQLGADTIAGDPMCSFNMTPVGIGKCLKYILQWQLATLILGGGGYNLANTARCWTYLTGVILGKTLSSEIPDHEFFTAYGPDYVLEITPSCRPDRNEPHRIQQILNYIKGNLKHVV
Method: HDAC8 Inhibition by Novel Compounds: Recombinant HDAC8 Fluorometric Assay.
A competitive inhibitory assay of HDAC8 was carried out by using recombinant HDAC8 and a commercial substrate Ac-Arg-His-Lys-Lys(ε-acetyl)-AMC.
Compounds were tested for their ability to inhibit histone deacetylase 8 using an in vitro deacetylation assay. The enzyme source for this assay was recombinant human HDAC8 protein expressed and purified from insect cells. […] The substrate consisted of a commercial product Ac-Arg-His-Lys-Lys(ε-acetyl)-AMC (substrate is available from Cayman Chemical). […] 1 μl of half-log diluted compounds were added into wells and incubated for 15 min at rt. After that, 8 μl of substrate solution was transferred to the wells and incubated for 30 min at rt. After deacetylation of the substrate by incubation with HDAC8 enzyme, subsequent exposure to a developing reagent produced a fluorophore that was directly proportional to the level of deacetylation. […] The fluorescence signal was measured by a FlexStation3 plate reader (excitation wave length 340-360 nm; emission wave length 440-465 nm). The HDAC8 IC50 was calculated after normalization and curve fitting using XLfit4.0 software. Inhibition %=[Mean(top)−signal(sample)]×100/[Mean(top)−Mean(bottom)].

Row | SMILES | p21 RP3 [1] | p21 RP10 [1] | p21 RP30 [1] | EC50 (HDAC6) [µM] | IC50 (recombinant human HDAC8) [µM]
1 | CC(C)Oc1ccc(N2CCC(Nc3ccc(C(=O)NO)cc3)C2=O)cc1 (centres unmarked) [Example 10, N-Hydroxy-4-[1-(4-isopropoxy-phenyl)-2-oxo-pyrrolidin-3-ylamino]-benzamide] | 0.07 | 0.05 | 0.05 | 2.15 | 1.8
2 | O=C(NO)c1ccc(NC2CCN(c3cccc(C(F)(F)F)c3)C2=O)cc1 (centres unmarked) [Example 11, N-Hydroxy-4-[2-oxo-1-(3-trifluoromethyl-phenyl)-pyrrolidin-3-ylamino]-benzamide] | 0.39 | 0.08 | 0.04 | 8.31 | 2.23
3 | CC(C)c1cccc(N2CCC(Nc3ccc(C(=O)NO)cc3)C2=O)c1 (centres unmarked) [Example 13, N-Hydroxy-4-[1-(3-isopropyl-phenyl)-2-oxo-pyrrolidin-3-ylamino]-benzamide] | 0.29 | 0.19 | 0.09 | 1.53 | 0.74
4 | CC(C)c1ccc(N2CCC(Nc3ccc(C(=O)NO)cc3)C2=O)cc1 (centres unmarked) [Example 14, N-Hydroxy-4-[1-(4-isopropyl-phenyl)-2-oxo-pyrrolidin-3-ylamino]-benzamide] | 0.13 | 0.07 | 0.06 | 2.61 | 3.18
5 | CC(C)(C)c1ccc(N2CCC(Nc3ccc(C(=O)NO)cc3)C2=O)cc1 (centres unmarked) [Example 16, 4-[1-(4-tert-Butyl-phenyl)-2-oxo-pyrrolidin-3-ylamino]-N-hydroxy-benzamide] | 0.17 | 0.12 | −0.03 | 1.06 | 1.87
6 | CS(=O)(=O)c1ccc(N2CCC(Nc3ccc(C(=O)NO)cc3)C2=O)cc1 (centres unmarked) [Example 17, N-Hydroxy-4-[1-(4-methanesulfonyl-phenyl)-2-oxo-pyrrolidin-3-ylamino]-benzamide] | 0.00 | 0.02 | 0.02 | 11.9 | 1.19
7 | N#Cc1cccc(N2CCC(Nc3ccc(C(=O)NO)cc3)C2=O)c1 (centres unmarked) [Example 18, 4-[1-(3-Cyano-phenyl)-2-oxo-pyrrolidin-3-ylamino]-N-hydroxy-benzamide] | 0.61 | 0.02 | −0.01 | 4.31 | 1.62
8 | N#Cc1ccc(N2CCC(Nc3ccc(C(=O)NO)cc3)C2=O)cc1 (centres unmarked) [Example 19, 4-[1-(4-Cyano-phenyl)-2-oxo-pyrrolidin-3-ylamino]-N-hydroxy-benzamide] | 0.46 | 0.00 | −0.03 | 3.14 | 1.05
9 | O=C(NO)c1ccc(NC2CCN(c3ccc(F)c(Cl)c3)C2=O)cc1 (centres unmarked) [Example 20, 4-[1-(3-Chloro-4-fluoro-phenyl)-2-oxo-pyrrolidin-3-ylamino]-N-hydroxy-benzamide] | 0.37 | 0.10 | 0.12 | 0.96 | 1.21
10 | O=C(NO)c1ccc(NC2CCN(c3cc(F)cc(Cl)c3)C2=O)cc1 (centres unmarked) [Example 21, 4-[1-(3-Chloro-5-fluoro-phenyl)-2-oxo-pyrrolidin-3-ylamino]-N-hydroxy-benzamide] | 1.56 | 0.48 | 0.28 | 4.69 | 1.01
11 | O=C(NO)c1ccc(NC2CCN(c3cc(Cl)ccc3F)C2=O)cc1 (centres unmarked) [Example 22, 4-[1-(5-Chloro-2-fluoro-phenyl)-2-oxo-pyrrolidin-3-ylamino]-N-hydroxy-benzamide] | 0.42 | 0.28 | 0.39 | 1.32 | 1.93
12 | O=C(NO)c1ccc(NC2CCN(c3cccc(Cl)c3Cl)C2=O)cc1 (centres unmarked) [Example 24, 4-[1-(2,3-Dichloro-phenyl)-2-oxo-pyrrolidin-3-ylamino]-N-hydroxy-benzamide] | 0.11 | 0.02 | 0.02 | 2.48 | 0.77
13 | O=C(NO)c1ccc(NC2CCN(c3ccc(Cl)c(Cl)c3)C2=O)cc1 (centres unmarked) [Example 25, 4-[1-(3,4-Dichloro-phenyl)-2-oxo-pyrrolidin-3-ylamino]-N-hydroxy-benzamide] | 0.00 | 0.14 | −0.03 | 4.33 | 0.97
